# Results: patent publication US20160281050A1, “METHODS FOR TREATING A CULTURE OF HAEMATOCOCCUS PLUVIALIS FOR CONTAMINATION USING SALT AND HYDROGEN PEROXIDE” (HELIAE DEVELOPMENT LLC, priority 2015, published 2016)
# Where two headings read alike, the source gives them in different places.
# Assays:
# [1] = test system: Haematococcus pluvialis (Strain 2); experiment: % cell lysis and culture dry weight in flasks, salt treatment (Example 12); format: cell-based
# Experimental: This test was done side by side in flasks (0.1 L) and in reactors located in a greenhouse operating in conditions: reactor volume of 230 L; Daily PAR of 20 mol m^−2 d^−1; pH (not measured); and paddlewheel speed of 21 RPM. […] The flask cultures were mixed by shaking at 140 rpm and received 300-400 μmol/m^2 s of photosynthetically active radiation (PAR) in 12 hour light cycles and constant supply of 2.5% CO2. The motility of the culture was monitored by visual observation under a microscope. […] Nine 230 L reactors were also seeded with culture from bioreactor #2410 on the same day as the flasks and brought to 2 ppt concentration of salt. Once motility of the cells was reduced to <10% (day 3 of culture for flasks and day 2 for 230 L reactors) the level of salt was elevated to a point between 4-18 ppt and compared to the culture in two reactors remaining at 2 ppt salt. Flasks and 230 L reactors were monitored for percentage of cell lysis via visual observation under a microscope, culture dry weight (biomass accumulation in g/L), and percentage of chytrid infection via visual observation under a microscope. Carotenoid production, a proxy for determining astaxanthin, was quantified every other day of culture in the 230 L reactors using the UV method.
# [2] = test system: Haematococcus pluvialis (Strain 1) green swimmer cells
# Experimental: (§1) An experiment was conducted to determine if treating a culture of Haematococcus pluvialis with hydrogen peroxide affects the live bacteria count. […] The culture in bioreactor #2210 was treated with 0.33 mL/L hydrogen peroxide 3% stock concentration (calculated concentration of 0.0099 mL/L) every 6 hours for the duration of the culture's green swimmer stage (90 hours). The culture in bioreactor #2230 was not treated to serve as a control for comparison. Samples were taken to assess motility, lysis, and the live bacteria count in the cultures at 11, 34, 52, and 66 hours.
# [3] = test system: live bacteria; conditions: 0.0099 mL/L every 6 hours
# Experimental: as §1
# [4] = test system: Haematococcus pluvialis (Strain 1) green swimmer cells; conditions: for % Lysis: samples from Bioreactor #2430 48 hours after transfer
# Experimental: A series of experiments were conducted to determine if treating a culture of Haematococcus pluvialis with hydrogen peroxide prevents lysis.
# [5] = dosed 0.015 mL/L; carboy and open raceway pond samples
# [6] = test system: chytrids
# Text: Culture samples of Haematococcus pluvialis (Strain 2) were collected on the second day of culture from open raceway bioreactor #2410 operating in conditions: reactor volume of 150,000 L; Daily PAR of 9.77 mol m^−2 d^−1; pH of 7.3; and paddlewheel speed of 70%. Culture samples were distributed into flasks for culturing, consisting of duplicate untreated controls and duplicate treatments. […] Samples were taken from the flask cultures daily to quantify % lysis and % chytrid infection and cell dry weight was quantified every other day for a duration of 11 days.
# [7] = test system: Haematococcus pluvialis (Strain 2); experiment: % lysis and culture dry weight in flasks (Example 9); conditions: for percent lysis: by day 5;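 for all read-outs here: flask cultures run in duplicate for each treatment, alongside duplicate untreated control flasks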
# Text: Culture samples of Haematococcus pluvialis (Strain 2) were collected on day 5 of the culture from open raceway bioreactor #2420 operating in conditions: reactor volume of 170,000 L; Daily PAR not measured; pH of 7.3; and paddlewheel speed of 70%). Culture samples were distributed into flasks for culturing, consisting of duplicate untreated controls and duplicate treatments. […] Samples were taken from the flask cultures every few days in order to quantify % lysis, % chytrid infection, and cell dry weight for a duration of about 11 days.
molecule,measurement,setting,value
"[Cl-].[Na+] [NaCl, sodium chloride]",% Cell Lysis in Flasks,"[1]; 2 ppt, 9 d",0 ± 0%
same,% Cell Lysis in Flasks,"[1]; 2 ppt, 11 d",0 ± 0%
same,% Cell Lysis in Flasks,"[1]; 4 ppt, 9 d",0 ± 0%
same,% Cell Lysis in Flasks,"[1]; 4 ppt, 11 d",0 ± 0%
same,% Cell Lysis in Flasks,"[1]; 5 ppt, 9 d",0 ± 0%
same,% Cell Lysis in Flasks,"[1]; 5 ppt, 11 d",1 ± 1%
same,% Cell Lysis in Flasks,"[1]; 6 ppt, 9 d",4 ± 3%
same,% Cell Lysis in Flasks,"[1]; 6 ppt, 11 d",5 ± 4%
same,% Cell Lysis in Flasks,"[1]; 7 ppt, 9 d",0 ± 0%
same,% Cell Lysis in Flasks,"[1]; 7 ppt, 11 d",7 ± 3%
same,% Cell Lysis in Flasks,"[1]; 8 ppt, 9 d",3 ± 2%
same,% Cell Lysis in Flasks,"[1]; 8 ppt, 11 d",2 ± 0%
same,% Cell Lysis in Flasks,"[1]; 9 ppt, 9 d",0 ± 0%
same,% Cell Lysis in Flasks,"[1]; 9 ppt, 11 d",2 ± 0%
same,% Cell Lysis in Flasks,"[1]; 10 ppt, 9 d",1 ± 1%
same,% Cell Lysis in Flasks,"[1]; 10 ppt, 11 d",3 ± 1%
same,% Cell Lysis in Flasks,"[1]; 11 ppt, 9 d",0 ± 0%
same,% Cell Lysis in Flasks,"[1]; 11 ppt, 11 d",1 ± 1%
same,cell lysis,"[1]; flasks, all treatments",below 10%
hydrogen peroxide [H2O2],Motility,[2],above 60%
same,lysis,[2],≤ 15%
same,reduction in the bacteria count,[3]; vs untreated control,approximately 1 log
same,Live Bacteria Count,[3]; 11 h,4.8 × 10^5 CFU/mL
same,Live Bacteria Count,[3]; 34 h,5.5 × 10^6 CFU/mL
same,Live Bacteria Count,[3]; 52 h,1.8 × 10^5 CFU/mL
same,Live Bacteria Count,[3]; 66 h,4.5 × 10^5 CFU/mL
same,lysis level with the hydrogen peroxide treatments,"[4]; Tables 6 and 7, 0.007 mL/L three times per day",less than 30%
same,% Lysis (±1SD),"[4]; samples from Bioreactor #2330, 0.007 mL/L three times per day, 0 h",8.3 ± 7.6%
same,% Lysis (±1SD),"[4]; samples from Bioreactor #2330, 0.007 mL/L three times per day, 24 h",10.0 ± 4.7%
same,% Lysis (±1SD),"[4]; samples from Bioreactor #2330, 0.007 mL/L three times per day, 48 h",12.5 ± 3.5%
same,% Lysis (±1SD),"[4]; samples from Bioreactor #2330, 0.007 mL/L three times per day, 72 h",0.0 ± 0.0%
same,% Lysis (±1SD),"[4]; samples from Bioreactor #2330, 0.007 mL/L three times per day, 120 h",0.8 ± 1.2%
same,% Lysis (±1SD),"[4]; samples from Bioreactor #2430 24 hours after transfer, 0.007 mL/L three times per day, 0 h",0.0 ± 0.0%
same,% Lysis (±1SD),"[4]; samples from Bioreactor #2430 24 hours after transfer, 0.007 mL/L three times per day, 24 h",7.5 ± 1.2%
same,% Lysis (±1SD),"[4]; samples from Bioreactor #2430 24 hours after transfer, 0.007 mL/L three times per day, 48 h",0.0 ± 0.0%
same,% Lysis (±1SD),"[4]; samples from Bioreactor #2430 24 hours after transfer, 0.007 mL/L three times per day, 96 h",4.1 ± 1.2%
same,% Lysis,"[4]; 0.007 mL/L three times per day, 0 h",3.3 ± 2.9%
same,% Lysis,"[4]; 0.007 mL/L three times per day, 24 h",25.0 ± 9.4%
same,% Lysis,"[4]; 0.007 mL/L three times per day, 96 h",16.7 ± 4.7%
same,reduction of lysis,"[4]; vs control cultures, Tables 6 and 7",60-80%
same,time to concentration below detectable limits,[5],120 min
same,time to concentration below level expected to be effective against uniflagellates (calculated concentration 0.0075 mL/L),[5],30 min
same,% Chytrid infection,"[6]; 0.0105 mL/L 1 time daily for 3 days, day 1",0.0 ± 0.0%
same,% Chytrid infection,"[6]; 0.0105 mL/L 1 time daily for 3 days, day 2",0.0 ± 0.0%
same,% Chytrid infection,"[6]; 0.0105 mL/L 1 time daily for 3 days, day 3",0.0 ± 0.0%
same,% Chytrid infection,"[6]; 0.0105 mL/L 1 time daily for 3 days, day 4",0.0 ± 0.0%
same,% Chytrid infection,"[6]; 0.0105 mL/L 1 time daily for 3 days, day 5",0.8 ± 1.2%
same,% Chytrid infection,"[6]; 0.0105 mL/L 1 time daily for 3 days, day 6",0.0 ± 0.0%
same,% Chytrid infection,"[6]; 0.0105 mL/L 1 time daily for 3 days, day 7",1.7 ± 2.4%
same,% Chytrid infection,"[6]; 0.0105 mL/L 1 time every other day, day 1",0.0 ± 0.0%
same,% Chytrid infection,"[6]; 0.0105 mL/L 1 time every other day, day 2",0.0 ± 0.0%
same,% Chytrid infection,"[6]; 0.0105 mL/L 1 time every other day, day 3",2.5 ± 1.2%
same,% Chytrid infection,"[6]; 0.0105 mL/L 1 time every other day, day 4",0.0 ± 0.0%
same,% Chytrid infection,"[6]; 0.0105 mL/L 1 time every other day, day 5",0.8 ± 1.2%
same,% Chytrid infection,"[6]; 0.0105 mL/L 1 time every other day, day 6",3.3 ± 0.0%
same,% Chytrid infection,"[6]; 0.0105 mL/L 1 time every other day, day 7",0.8 ± 1.2%
same,% Chytrid infection,"[6]; 0.0105 mL/L 1 time per day, day 1",0.0 ± 0.0%
same,% Chytrid infection,"[6]; 0.0105 mL/L 1 time per day, day 2",0.0 ± 0.0%
same,% Chytrid infection,"[6]; 0.0105 mL/L 1 time per day, day 3",0.0 ± 0.0%
same,% Chytrid infection,"[6]; 0.0105 mL/L 1 time per day, day 4",0.0 ± 0.0%
same,% Chytrid infection,"[6]; 0.0105 mL/L 1 time per day, day 5",2.5 ± 3.5%
same,% Chytrid infection,"[6]; 0.0105 mL/L 1 time per day, day 6",0.0 ± 0.0%
same,% Chytrid infection,"[6]; 0.0105 mL/L 1 time per day, day 7",0.0 ± 0.0%
same,chytrid infection,"[6]; all treated flasks, 0.0105 mL/L",below 5%
same,% Lysis,"[7]; 0.0105 mL/L 3 times per day (discontinued day 5), day 6",3.3 ± 2.4%
same,% Lysis,"[7]; 0.0105 mL/L 3 times per day (discontinued day 5), day 9",6.7 ± 2.4%
same,% Lysis,"[7]; 0.0105 mL/L 3 times per day (discontinued day 5), day 11",4.2 ± 3.5%
same,% Lysis,"[7]; 0.0105 mL/L 3 times per day, day 0",4.2 ± 1.2%
same,% Lysis,"[7]; 0.0105 mL/L 3 times per day, day 3",0.8 ± 1.2%
same,% Lysis,"[7]; 0.0105 mL/L 3 times per day, day 4",3.3 ± 2.4%
same,% Lysis,"[7]; 0.0105 mL/L 3 times per day, day 5",10.8 ± 1.2%
same,% Lysis,"[7]; 0.0140 mL/L 1 time per day (discontinued day 5), day 6",7.5 ± 1.2%
same,% Lysis,"[7]; 0.0140 mL/L 1 time per day (discontinued day 5), day 9",10.8 ± 1.2%
same,% Lysis,"[7]; 0.0140 mL/L 1 time per day (discontinued day 5), day 11",7.5 ± 1.2%
same,% Lysis,"[7]; 0.0140 mL/L 1 time per day, day 0",4.2 ± 1.2%
same,% Lysis,"[7]; 0.0140 mL/L 1 time per day, day 3",5.0 ± 2.4%
same,% Lysis,"[7]; 0.0140 mL/L 1 time per day, day 4",4.2 ± 1.2%
same,% Lysis,"[7]; 0.0140 mL/L 1 time per day, day 5",10.0 ± 2.4%
same,% Lysis,"[7]; 0.0140 mL/L 2 times per day (discontinued day 5), day 6",9.7 ± 5.9%
same,% Lysis,"[7]; 0.0140 mL/L 2 times per day (discontinued day 5), day 9",5.0 ± 0.0%
same,% Lysis,"[7]; 0.0140 mL/L 2 times per day (discontinued day 5), day 11",0.0 ± 0.0%
same,% Lysis,"[7]; 0.0140 mL/L 2 times per day, day 0",4.2 ± 1.2%
same,% Lysis,"[7]; 0.0140 mL/L 2 times per day, day 3",5.0 ± 4.7%
same,% Lysis,"[7]; 0.0140 mL/L 2 times per day, day 4",3.3 ± 2.4%
same,% Lysis,"[7]; 0.0140 mL/L 2 times per day, day 5",10.0 ± 2.4%
same,% Lysis,"[7]; 0.0140 mL/L 3 times per day (discontinued day 5), day 6",55.0 ± 30.6%
same,% Lysis,"[7]; 0.0140 mL/L 3 times per day (discontinued day 5), day 9",60.0 ± 28.3%
same,% Lysis,"[7]; 0.0140 mL/L 3 times per day (discontinued day 5), day 11",56.7 ± 33.0%
same,% Lysis,"[7]; 0.0140 mL/L 3 times per day, day 0",4.2 ± 1.2%
same,% Lysis,"[7]; 0.0140 mL/L 3 times per day, day 3",2.5 ± 3.5%
same,% Lysis,"[7]; 0.0140 mL/L 3 times per day, day 4",9.2 ± 1.2%
same,% Lysis,"[7]; 0.0140 mL/L 3 times per day, day 5",42.5 ± 15.3%
same,percent lysis,[7]; 0.014 mL/L dosed three times per day,40%
same,% Lysis,"[7]; 0.0175 mL/L 1 time per day (discontinued day 5), day 6",6.7 ± 2.4%
same,% Lysis,"[7]; 0.0175 mL/L 1 time per day (discontinued day 5), day 9",6.7 ± 4.7%
same,% Lysis,"[7]; 0.0175 mL/L 1 time per day (discontinued day 5), day 11",4.2 ± 3.5%
same,% Lysis,"[7]; 0.0175 mL/L 1 time per day, day 0",4.2 ± 1.2%
same,% Lysis,"[7]; 0.0175 mL/L 1 time per day, day 3",2.5 ± 1.2%
same,% Lysis,"[7]; 0.0175 mL/L 1 time per day, day 4",4.2 ± 1.2%
same,% Lysis,"[7]; 0.0175 mL/L 1 time per day, day 5",9.2 ± 1.2%
same,percent lysis,[7]; all treated cultures except 0.014 mL/L three times per day,10%
